The source of these data is patent US20080188554A1, “METHODS OF TREATING AVIAN HYPERTENSION” (Regents of the University of California Office of …, priority 2006, published 2008).

Test [1] deals with T1, sEH (Homo sapiens, UniProt P34913).
T1 sequence (P34913 1-555): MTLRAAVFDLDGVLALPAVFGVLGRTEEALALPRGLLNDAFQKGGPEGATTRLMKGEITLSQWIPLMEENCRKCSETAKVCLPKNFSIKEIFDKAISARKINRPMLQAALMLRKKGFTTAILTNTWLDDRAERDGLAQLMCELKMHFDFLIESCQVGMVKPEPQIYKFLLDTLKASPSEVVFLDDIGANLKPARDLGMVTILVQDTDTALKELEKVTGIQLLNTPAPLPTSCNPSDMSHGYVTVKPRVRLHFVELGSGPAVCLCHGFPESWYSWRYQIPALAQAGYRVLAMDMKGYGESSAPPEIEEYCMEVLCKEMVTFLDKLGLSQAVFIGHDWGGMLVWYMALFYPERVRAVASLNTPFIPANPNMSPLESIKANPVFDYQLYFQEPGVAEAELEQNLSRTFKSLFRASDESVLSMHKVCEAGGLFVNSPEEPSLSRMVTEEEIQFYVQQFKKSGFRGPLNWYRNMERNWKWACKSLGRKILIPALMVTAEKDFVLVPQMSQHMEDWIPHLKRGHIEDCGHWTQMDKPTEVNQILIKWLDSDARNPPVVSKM
The test is described as follows: sEH inhibition, general statements on earlier tests. It is filed as biochemical. The following applies: statement in words, no method given.

For test [2], the target named is Recombinant chicken sEH (Gallus gallus, UniProt Q45QT1). The test is described as follows: Non-radioactive epoxide hydrolase assay (HPLC-MS/MS), specific activity of substrates. The following applies: compound as substrate, 50 μM, 30° C., 10 min. It is filed as biochemical. The protocol: The trans-9,10-epoxystearate was purchased (Sigma-Aldrich). A 5 mM solution of each substrate was made in ethanol for the EETs and methanol for the epoxystearate. The substrate solution (1 μL) was added to 100 μL of enzyme preparation in sodium phosphate buffer (0.1 M, pH 7.4) containing 0.1 mg/mL of BSA ([S]final=50 μM). The enzyme was incubated with the substrate at 30° C. for 10 min, and the reaction quenched by addition of 400 μL of methanol. The products were analyzed by HPLC-MS/MS as previously described (Newman, J. W. et al., J. Lipid Res. 43:1563-1578 (2002)) with the following exceptions. A 2.0×20 mm, 3-μm Luna C18 Mercury MS column (Phenomenex, Torrance, Calif.) was used with a 350 μL/min isocratic flow of […] (vol/vol/vol) acetonitrile/water/methanol with 0.1% glacial acetic acid for 2.5 min. Assays were performed in triplicate.

Test [3] addresses T2, mouse sEH (Mus musculus, UniProt P34914).
T2 sequence (P34914 1-554): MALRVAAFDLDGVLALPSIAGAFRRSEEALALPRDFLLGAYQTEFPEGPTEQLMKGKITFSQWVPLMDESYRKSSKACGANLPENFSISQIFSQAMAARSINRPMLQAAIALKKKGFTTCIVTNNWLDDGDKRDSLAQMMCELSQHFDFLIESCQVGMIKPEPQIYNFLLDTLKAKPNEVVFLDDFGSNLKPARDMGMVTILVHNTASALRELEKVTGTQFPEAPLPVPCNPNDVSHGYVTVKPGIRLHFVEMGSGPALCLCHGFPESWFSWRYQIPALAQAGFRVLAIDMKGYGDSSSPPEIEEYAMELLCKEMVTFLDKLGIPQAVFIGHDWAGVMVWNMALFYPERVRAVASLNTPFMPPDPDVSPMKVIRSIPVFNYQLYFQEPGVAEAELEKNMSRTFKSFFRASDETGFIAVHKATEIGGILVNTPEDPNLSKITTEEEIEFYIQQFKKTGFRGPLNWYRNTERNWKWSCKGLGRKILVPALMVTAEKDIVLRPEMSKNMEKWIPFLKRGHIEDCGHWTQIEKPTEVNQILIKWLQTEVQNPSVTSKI
Conditions: compound as substrate, from Morisseau 2000; cited from earlier work.

The subject of test [4] is chicken sEH phosphatase activity. The test can be described thus: Phosphatase assay. It counts as biochemical. The following applies: conditions developed for the mammalian enzyme phosphatase assay. The protocol:
The phosphatase substrate, threo-9,10-phosphonooxy-hydroxy-octadecanoic acid was synthesized as previously described (Newman, J. W. et al., Proc. Natl. Acad. Sci. USA 100: 1558-1563 (2003)). The assay was performed and analyzed by HPLC-MS/MS as described (Newman, J. W. et al., Proc. Natl. Acad. Sci. USA 100:1558-1563 (2003)).

Marks after values point to notes of the source that are not given here.

Recombinant chicken sEH, sequence (Q45QT1 entry or part of it): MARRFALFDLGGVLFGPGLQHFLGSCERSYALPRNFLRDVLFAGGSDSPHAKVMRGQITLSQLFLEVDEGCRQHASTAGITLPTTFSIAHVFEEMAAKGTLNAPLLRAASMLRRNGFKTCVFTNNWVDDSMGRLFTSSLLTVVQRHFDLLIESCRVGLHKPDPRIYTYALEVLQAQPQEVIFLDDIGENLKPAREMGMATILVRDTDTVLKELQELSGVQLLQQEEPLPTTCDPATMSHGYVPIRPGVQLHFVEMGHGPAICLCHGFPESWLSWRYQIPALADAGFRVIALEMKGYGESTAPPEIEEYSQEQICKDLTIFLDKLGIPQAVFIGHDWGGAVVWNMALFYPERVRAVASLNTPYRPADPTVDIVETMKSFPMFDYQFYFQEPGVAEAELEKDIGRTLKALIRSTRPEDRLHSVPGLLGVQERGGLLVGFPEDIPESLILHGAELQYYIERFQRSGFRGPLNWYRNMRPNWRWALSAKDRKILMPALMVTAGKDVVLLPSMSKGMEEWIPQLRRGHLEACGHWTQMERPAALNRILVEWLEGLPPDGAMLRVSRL
chicken sEH phosphatase activity, sequence (as listed by the source): as the sequence (Q45QT1 entry or part of it) above

Turning to `CCCCCCCCCCCCNC(=O)NC12CC3CC(CC(C3)C1)C2` [ADU, N-Adamantyl-N′-dodecyl urea], in test [1], the “Activity as inhibitor of sEH” value is recorded as “particularly high activity”.

As for `CCCCCCCCC1OC1CCCCCCCC(=O)O` (stereo not drawn) [cis-9,10-epoxystearic acid], the Specific activity was 3.1 ± 0.2 nmol/min/mg in test [2] and 1139 ± 34* nmol · min^−1 · mg^−1 in test [3].

In the case of “threo-9,10-phosphonooxy-hydroxy-octadecanoic acid”, the “Hydrolysis of phosphatase substrate by chicken enzyme” value in test [4] was “did not hydrolyze”.
